Reference: PubChem BioAssay (NCI)
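Grown in 96-well plates, cells were treated for 48 hours with each compound at five concentrations. Insufficient inhibition: endpoint recorded as highest concentration tested. TGI denotes the concentration required for complete inhibition of growth.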

tested on: MALME-3M melanoma; experiment: NCI tumour cell line growth inhibition, 48 h

| Compound | TGI [µM] |
| --- | --- |
| CCOC(=O)C(N)CSC(=O)NC (stereo unspecified) | 306 |
| COC(=O)C1OC(Oc2cc(O)c3c(=O)cc(-c4ccc(O)cc4)oc3c2)C(O)C(O)C1O (stereo unspecified) | > 100 |

tested on: SK-MEL-2 melanoma; experiment: NCI tumour cell line growth inhibition, 48 h

| Compound | TGI [µM] |
| --- | --- |
| CCOC(=O)[C@H](CCCNC(=O)OC(C)(C)C)NCc1ccc(OC)c(OC)c1 | > 100 |
| O=c1cc(-c2ccccc2)[nH]c2cc3c(cc12)OCO3 | > 93.2 |
| COc1cc2c(cc1OCc1ccccc1)CNCC2 | > 100 |
| CCOC(=O)C(N)CSC(=O)NC (stereo unspecified) | 276 |
| COC(=O)C1OC(Oc2cc(O)c3c(=O)cc(-c4ccc(O)cc4)oc3c2)C(O)C(O)C1O (stereo unspecified) | > 100 |

tested on: ACHN renal; experiment: NCI tumour cell line growth inhibition, 48 h

| Compound | TGI [µM] |
| --- | --- |
| CCOC(=O)[C@H](CCCNC(=O)OC(C)(C)C)NCc1ccc(OC)c(OC)c1 | > 100 |
| O=c1cc(-c2ccccc2)[nH]c2cc3c(cc12)OCO3 | > 100 |
| COc1cc2c(cc1OCc1ccccc1)CNCC2 | > 100 |
| CCOC(=O)C(N)CSC(=O)NC (stereo unspecified) | 510 |

tested on: A498 renal; experiment: NCI tumour cell line growth inhibition, 48 h

| Compound | TGI [µM] |
| --- | --- |
| CCOC(=O)[C@H](CCCNC(=O)OC(C)(C)C)NCc1ccc(OC)c(OC)c1 | > 100 |
| O=c1cc(-c2ccccc2)[nH]c2cc3c(cc12)OCO3 | 63.1 |
| COc1cc2c(cc1OCc1ccccc1)CNCC2 | > 100 |
| CCOC(=O)C(N)CSC(=O)NC (stereo unspecified) | 594 |
| COC(=O)C1OC(Oc2cc(O)c3c(=O)cc(-c4ccc(O)cc4)oc3c2)C(O)C(O)C1O (stereo unspecified) | > 100 |

tested on: SN12K1 renal; experiment: NCI tumour cell line growth inhibition, 48 h

| Compound | TGI [µM] |
| --- | --- |
| CCOC(=O)C(N)CSC(=O)NC (stereo unspecified) | 112 |
| COC(=O)C1OC(Oc2cc(O)c3c(=O)cc(-c4ccc(O)cc4)oc3c2)C(O)C(O)C1O (stereo unspecified) | > 100 |

tested on: RXF-631 renal; experiment: NCI tumour cell line growth inhibition, 48 h

| Compound | TGI [µM] |
| --- | --- |
| CCOC(=O)[C@H](CCCNC(=O)OC(C)(C)C)NCc1ccc(OC)c(OC)c1 | > 100 |
| O=c1cc(-c2ccccc2)[nH]c2cc3c(cc12)OCO3 | > 100 |
| COc1cc2c(cc1OCc1ccccc1)CNCC2 | > 100 |

tested on: HOP-92 NSCLC; experiment: NCI tumour cell line growth inhibition, 48 h

| Compound | TGI [µM] |
| --- | --- |
| CCOC(=O)[C@H](CCCNC(=O)OC(C)(C)C)NCc1ccc(OC)c(OC)c1 | > 100 |
| O=c1cc(-c2ccccc2)[nH]c2cc3c(cc12)OCO3 | > 56.5 |
| COc1cc2c(cc1OCc1ccccc1)CNCC2 | > 100 |
| CCOC(=O)C(N)CSC(=O)NC (stereo unspecified) | 341 |
| COC(=O)C1OC(Oc2cc(O)c3c(=O)cc(-c4ccc(O)cc4)oc3c2)C(O)C(O)C1O (stereo unspecified) | > 100 |

tested on: NCI-H23 lung; experiment: NCI tumour cell line growth inhibition, 48 h

| Compound | TGI [µM] |
| --- | --- |
| CCOC(=O)[C@H](CCCNC(=O)OC(C)(C)C)NCc1ccc(OC)c(OC)c1 | > 100 |
| O=c1cc(-c2ccccc2)[nH]c2cc3c(cc12)OCO3 | > 28.6 |
| COc1cc2c(cc1OCc1ccccc1)CNCC2 | > 100 |
| CCOC(=O)C(N)CSC(=O)NC (stereo unspecified) | 469 |
| COC(=O)C1OC(Oc2cc(O)c3c(=O)cc(-c4ccc(O)cc4)oc3c2)C(O)C(O)C1O (stereo unspecified) | > 100 |

tested on: KM20L2 colon; experiment: NCI tumour cell line growth inhibition, 48 h

| Compound | TGI [µM] |
| --- | --- |
| CCOC(=O)[C@H](CCCNC(=O)OC(C)(C)C)NCc1ccc(OC)c(OC)c1 | > 100 |
| O=c1cc(-c2ccccc2)[nH]c2cc3c(cc12)OCO3 | 12.2 |
| COc1cc2c(cc1OCc1ccccc1)CNCC2 | > 100 |
| CCOC(=O)C(N)CSC(=O)NC (stereo unspecified) | 507 |
| COC(=O)C1OC(Oc2cc(O)c3c(=O)cc(-c4ccc(O)cc4)oc3c2)C(O)C(O)C1O (stereo unspecified) | > 100 |

tested on: HCC-2998 colon; experiment: NCI tumour cell line growth inhibition, 48 h

| Compound | TGI [µM] |
| --- | --- |
| CCOC(=O)[C@H](CCCNC(=O)OC(C)(C)C)NCc1ccc(OC)c(OC)c1 | > 100 |
| O=c1cc(-c2ccccc2)[nH]c2cc3c(cc12)OCO3 | 55.6 |
| COc1cc2c(cc1OCc1ccccc1)CNCC2 | > 100 |
| CCOC(=O)C(N)CSC(=O)NC (stereo unspecified) | 644 |
| COC(=O)C1OC(Oc2cc(O)c3c(=O)cc(-c4ccc(O)cc4)oc3c2)C(O)C(O)C1O (stereo unspecified) | > 100 |

tested on: BT-549 breast; experiment: NCI tumour cell line growth inhibition, 48 h

| Compound | TGI [µM] |
| --- | --- |
| O=c1cc(-c2ccccc2)[nH]c2cc3c(cc12)OCO3 | > 100 |
| CCOC(=O)C(N)CSC(=O)NC (stereo unspecified) | 346 |

tested on: NCI-H522 lung; experiment: NCI tumour cell line growth inhibition, 48 h

| Compound | TGI [µM] |
| --- | --- |
| CCOC(=O)[C@H](CCCNC(=O)OC(C)(C)C)NCc1ccc(OC)c(OC)c1 | > 100 |
| O=c1cc(-c2ccccc2)[nH]c2cc3c(cc12)OCO3 | 13.4 |
| COc1cc2c(cc1OCc1ccccc1)CNCC2 | > 100 |
| CCOC(=O)C(N)CSC(=O)NC (stereo unspecified) | 472 |
| COC(=O)C1OC(Oc2cc(O)c3c(=O)cc(-c4ccc(O)cc4)oc3c2)C(O)C(O)C1O (stereo unspecified) | > 100 |

tested on: MCF7 breast; experiment: NCI tumour cell line growth inhibition, 48 h

| Compound | TGI [µM] |
| --- | --- |
| O=c1cc(-c2ccccc2)[nH]c2cc3c(cc12)OCO3 | > 100 |
| CCOC(=O)C(N)CSC(=O)NC (stereo unspecified) | 425 |
| COC(=O)C1OC(Oc2cc(O)c3c(=O)cc(-c4ccc(O)cc4)oc3c2)C(O)C(O)C1O (stereo unspecified) | > 100 |

tested on: CAKI-1 renal; experiment: NCI tumour cell line growth inhibition, 48 h

| Compound | TGI [µM] |
| --- | --- |
| CCOC(=O)[C@H](CCCNC(=O)OC(C)(C)C)NCc1ccc(OC)c(OC)c1 | > 100 |
| COc1cc2c(cc1OCc1ccccc1)CNCC2 | > 100 |
| CCOC(=O)C(N)CSC(=O)NC (stereo unspecified) | 461 |
| COC(=O)C1OC(Oc2cc(O)c3c(=O)cc(-c4ccc(O)cc4)oc3c2)C(O)C(O)C1O (stereo unspecified) | > 100 |

tested on: DU-145 prostate; experiment: NCI tumour cell line growth inhibition, 48 h

| Compound | TGI [µM] |
| --- | --- |
| O=c1cc(-c2ccccc2)[nH]c2cc3c(cc12)OCO3 | > 100 |
| CCOC(=O)C(N)CSC(=O)NC (stereo unspecified) | 597 |

tested on: U251 CNS; experiment: NCI tumour cell line growth inhibition, 48 h

| Compound | TGI [µM] |
| --- | --- |
| CCOC(=O)[C@H](CCCNC(=O)OC(C)(C)C)NCc1ccc(OC)c(OC)c1 | > 100 |
| O=c1cc(-c2ccccc2)[nH]c2cc3c(cc12)OCO3 | > 82.3 |
| COc1cc2c(cc1OCc1ccccc1)CNCC2 | > 100 |
| CCOC(=O)C(N)CSC(=O)NC (stereo unspecified) | 347 |
| COC(=O)C1OC(Oc2cc(O)c3c(=O)cc(-c4ccc(O)cc4)oc3c2)C(O)C(O)C1O (stereo unspecified) | > 100 |

tested on: SF-268 CNS; experiment: NCI tumour cell line growth inhibition, 48 h

| Compound | TGI [µM] |
| --- | --- |
| CCOC(=O)[C@H](CCCNC(=O)OC(C)(C)C)NCc1ccc(OC)c(OC)c1 | > 100 |
| O=c1cc(-c2ccccc2)[nH]c2cc3c(cc12)OCO3 | > 17.5 |
| COc1cc2c(cc1OCc1ccccc1)CNCC2 | > 100 |
| CCOC(=O)C(N)CSC(=O)NC (stereo unspecified) | 443 |
| COC(=O)C1OC(Oc2cc(O)c3c(=O)cc(-c4ccc(O)cc4)oc3c2)C(O)C(O)C1O (stereo unspecified) | > 100 |

tested on: K-562 leukemia; experiment: NCI tumour cell line growth inhibition, 48 h

| Compound | TGI [µM] |
| --- | --- |
| CCOC(=O)[C@H](CCCNC(=O)OC(C)(C)C)NCc1ccc(OC)c(OC)c1 | > 100 |
| O=c1cc(-c2ccccc2)[nH]c2cc3c(cc12)OCO3 | > 100 |
| COc1cc2c(cc1OCc1ccccc1)CNCC2 | > 100 |
| CCOC(=O)C(N)CSC(=O)NC (stereo unspecified) | 284 |
| COC(=O)C1OC(Oc2cc(O)c3c(=O)cc(-c4ccc(O)cc4)oc3c2)C(O)C(O)C1O (stereo unspecified) | > 100 |

tested on: P388 leukemia; experiment: NCI tumour cell line growth inhibition, 48 h

| Compound | TGI [µM] |
| --- | --- |
| CCOC(=O)C(N)CSC(=O)NC (stereo unspecified) | 102 |
| COC(=O)C1OC(Oc2cc(O)c3c(=O)cc(-c4ccc(O)cc4)oc3c2)C(O)C(O)C1O (stereo unspecified) | > 100 |

tested on: CCRF-CEM leukemia; experiment: NCI tumour cell line growth inhibition, 48 h

| Compound | TGI [µM] |
| --- | --- |
| CCOC(=O)[C@H](CCCNC(=O)OC(C)(C)C)NCc1ccc(OC)c(OC)c1 | > 100 |
| O=c1cc(-c2ccccc2)[nH]c2cc3c(cc12)OCO3 | > 100 |
